For 15 molecules, IC50 results are on record in patent US12421254B2, “KRAS modulators and uses thereof” (Quanta Therapeutics, Inc., priority 2023, dated 2025).

Test [1] addresses GST-tagged KRAS-G12D (2-169) (Homo sapiens, UniProt P01116, G12D). The experiment in a line: Nucleotide exchange assay (NEA), SOS-mediated, HTRF, KRAS G12D. It is filed as biochemical. As to conditions: IC50 extracted at 30 min, 20 nM SOScat. The text has this: (§1) This activity is tightly regulated by GTPase activating proteins (GAPs) and guanine nucleotide exchange factors (GEFs). GEFs, such as SOS1/2, activate Ras proteins by exchanging GDP for GTP, thus returning Ras to its active conformation (Simanshu, Nissley, & McCormick, 2017). […] Homogenous time resolved fluorescence (HTRF) was used to detect SOS-mediated binding of a fluorescent GTP analog, GTP-DY-647P1 (Jena Biosciences NU-820-647P1) to GST-tagged KRAS-G12D (2-169) or to GST-tagged KRAS-G12V (2-169, Reaction Biology, MSC-11-540).
(§2) GST-tagged KRAS-G12D (2-169) and anti-GST MAb Tb Cryptate Gold (CisBio 61GSTTLB) were diluted into assay buffer (20 mM HEPES, pH 7.3, 150 mM NaCl, 5 mM MgCl2, 0.05% BSA 0.0025% NP40, 1 mM DTT) to prepare a 2.5× donor solution. 5× compound was added to the protein mixture and incubated for 1 h at RT. 2.5× acceptor solution containing SOS1cat (564-1049, Reaction Biology MSC-11-502) and GTP-DY-647P1 were then added to the donor KRAS mixture such that the final concentration of the reaction contained 0.25 nM GST-tagged KRAS-G12D (2-169), 20 nM SOScat, and 150 nM GTP-DY-647P1. The reaction was monitored using at RT with the Envision multimode plate reader (Ex/Em 337/665, […]) up to 90 minutes at 5 minute intervals. To monitor KRAS-G12V SOS-mediated nucleotide exchange, 80 nM SOS was added to reaction instead of 20 nM. All other components were the same as previously described. Data was blanked to reactions without SOS1 and % inhibition was calculated such that DMSO only =0% and blank=100%. Curve fitting was done using a 4 parameter fit. Reported IC50 values were extracted at 30 min and 90 min for the KRAS-G12D and KRAS-G12V assays, respectively.
NEA KRAS G12D IC50 (uM) values of selected compounds are depicted in Table 2 with compounds having a value <0.01 uM as ++++; ≥0.01 uM to 0.1 uM as +++; ≥0.1 uM to 1 uM as ++; ≥1 uM to 20 uM as +; and ≥20 uM as NA.
On the technique in general: In TR-FRET formats the signal depends on donor and acceptor labels being close together.

Test [2] has as its target GST-tagged KRAS-G12V (2-169) (Homo sapiens, UniProt P01116, G12V). The experiment in a line: Nucleotide exchange assay (NEA), SOS-mediated, HTRF, KRAS G12V. The test is classed as biochemical. As to conditions: Table 4; IC50 extracted at 90 min; 80 nM SOS.
From the text: as §1, §2

Setting [3] is: Table 4, read-out: NEA G12D IC50.

Where two headings read alike, the source gives them in different places. Some results are limits rather than exact numbers.

Sequence of GST-tagged KRAS-G12V (2-169) (P01116 2-169 isoform P01116-2 G12V): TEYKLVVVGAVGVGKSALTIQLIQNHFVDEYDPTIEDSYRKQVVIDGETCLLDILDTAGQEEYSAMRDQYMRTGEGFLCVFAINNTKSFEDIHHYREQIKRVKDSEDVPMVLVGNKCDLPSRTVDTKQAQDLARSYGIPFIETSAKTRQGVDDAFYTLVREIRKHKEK
Sequence of GST-tagged KRAS-G12D (2-169) (P01116 2-169 isoform P01116-2 G12D): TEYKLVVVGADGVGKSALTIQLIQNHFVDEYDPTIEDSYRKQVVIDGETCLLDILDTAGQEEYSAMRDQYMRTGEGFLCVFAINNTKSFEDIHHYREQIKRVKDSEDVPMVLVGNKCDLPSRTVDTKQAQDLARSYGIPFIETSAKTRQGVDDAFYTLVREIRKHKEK

For `CCN(c1nc(OC[C@@]23CCCN2C[C@H](F)C3)nc(N2CC3(C2)c2c(sc(N)c2C#N)C2CC23)n1)[C@H](C)c1cccnc1N` (stereo partly drawn) [Compound 212, 8-amino-1′-[4-[[(1R)-1-(2-amino-3-pyridyl)ethyl]-ethyl-amino]-6-[[(2R,8S)-2-fluoro-1,2,3,5,6,7-hexahydropyrrolizin-8-yl]methoxy]-1,3,5-triazin-2-yl]spiro[9-thiatricyclo[4.3.0.02,4]nona-1(6),7-diene-5,3′-azetidine]-7-carbonitrile], the IC50 in test [1] (setting [3]) and in test [2] was under 0.01 µM each time. As to `N#Cc1c(N)sc2c1C1(CN(c3nc(OC[C@@]45CCCN4C[C@H](F)C5)nc(N4C5CNC(=O)C4C5)n3)C1)SC2` (stereo partly drawn) [Compound 267, 2-amino-1′-[4-[[(2R,8S)-2-fluoro-1,2,3,5,6,7-hexahydropyrrolizin-8-yl]methoxy]-6-(2-oxo-3,6-diazabicyclo[3.1.1]heptan-6-yl)-1,3,5-triazin-2-yl]spiro[6H-thieno[3,4-b]thiophene-4,3′-azetidine]-3-carbonitrile], the 50% inhibitory concentration (IC50) in test [1] (setting [3]) was 0.01 to 0.1 µM; in test [2], under 0.01 µM. The matching figures for `C[C@H](c1cccnc1N)N(C)c1nc(OC[C@@]23CCCN2C[C@H](F)C3)nc(N2CCC3(CCCc4sc(N)c(C#N)c43)C2=O)n1` (single isomer, unassigned) [Compound 175A, (*)-2-amino-1′-(4-(((R)-1-(2-aminopyridin-3-yl)ethyl)(methyl)amino)-6-(((2R,7aS)-2-fluorotetrahydro-1H-pyrrolizin-7a(5H)-yl)methoxy)-1,3,5-triazin-2-yl)-2′-oxo-6,7-dihydro-5H-spiro[benzo[b]thiophene-4,3′-pyrrolidine]-3-carbonitrile]: 0.01 to 0.1 µM and under 0.01 µM.

Regarding `CC(c1ccn(C)n1)N(C)c1nc(OC[C@@]23CCCN2C[C@H](F)C3)nc(N2CC3(CCc4sc(N)c(C#N)c43)C2)n1` (stereo partly drawn) [Compound 119, 2-amino-1′-[4-[[(2R,8S)-2-fluoro-1,2,3,5,6,7-hexahydropyrrolizin-8-yl]methoxy]-6-[methyl-[1-(1-methylpyrazol-3-yl)ethyl]amino]-1,3,5-triazin-2-yl]spiro[5,6-dihydrocyclopenta[b]thiophene-4,3′-azetidine]-3-carbonitrile], the IC50 in test [1] (setting [3]) and in test [2] was 1 to 20 µM in each case. As to `CN(c1nc(OC[C@@]23CCCN2C[C@H](F)C3)nc(N2CC3(CCc4sc(N)c(C#N)c43)C2)n1)C1CCOC1` (stereo partly drawn) [Compound 36, 2-amino-1′-[4-[[(2R,8S)-2-fluoro-1,2,3,5,6,7-hexahydropyrrolizin-8-yl]methoxy]-6-[methyl(tetrahydrofuran-3-yl)amino]-1,3,5-triazin-2-yl]spiro[5,6-dihydrocyclopenta[b]thiophene-4,3′-azetidine]-3-carbonitrile], the half-inhibitory concentration (IC50) in test [1] (setting [3]) and in test [2] was 0.1 to 1 µM in each case.

On to `C[C@H](c1cccnc1N)N(C)c1nc(OC[C@@]23CCCN2C[C@H](F)C3)nc(N2CCC3(CCc4sc(N)c(C#N)c43)C2)n1` (stereo partly drawn) [Compound 195, 2-amino-1′-[4-[methyl-[(1R)-1-(2-amino-3-pyridyl)ethyl]amino]-6-[[(2R,8S)-2-fluoro-1,2,3,5,6,7-hexahydropyrrolizin-8-yl]methoxy]-1,3,5-triazin-2-yl]spiro[5,6-dihydrocyclopenta[b]thiophene-4,3′-pyrrolidine]-3-carbonitrile], for which the IC50 in test [1] (setting [3]) was 0.01 to 0.1 µM; in test [2], under 0.01 µM.

For `N#Cc1c(N)sc2c1C1(CN(c3nc(OC[C@@]45CCCN4C[C@H](F)C5)nc(N(CC(=O)O)Cc4cccnc4N)n3)C1)SC2` [Compound 187, 2-[[4-(2-amino-3-cyano-spiro[6H-thieno[3,4-b]thiophene-4,3′-azetidine]-1′-yl)-6-[[(2R,8S)-2-fluoro-1,2,3,5,6,7-hexahydropyrrolizin-8-yl]methoxy]-1,3,5-triazin-2-yl]-[(2-amino-3-pyridyl)methyl]amino]acetic acid], the half-inhibitory concentration (IC50) in test [1] (setting [3]) is 0.01 to 0.1 µM; in test [2], under 0.01 µM. The matching figures for `CN(c1nc(OC[C@@]23CCCN2C[C@H](F)C3)nc(N2CC3(CCc4sc(N)c(C#N)c43)C2)n1)[C@@H]1CCC[C@@H]1O` (racemic) [Compound 92, 2-amino-1′-[4-[[(2R,8S)-2-fluoro-1,2,3,5,6,7-hexahydropyrrolizin-8-yl]methoxy]-6-[[rac-(1R,2S)-2-hydroxycyclopentyl]-methyl-amino]-1,3,5-triazin-2-yl]spiro[5,6-dihydrocyclopenta[b]thiophene-4,3′-azetidine]-3-carbonitrile]: 0.1 to 1 µM and 0.1 to 1 µM.

As to `N#Cc1c(N)sc2c1C1(CN(c3nc(OC[C@@]45CCCN4C[C@H](F)C5)nc(N4[C@H]5CC[C@@H]4[C@H](C#N)C5)n3)C1)SC2` (racemic) [Compound 279, 2-amino-1′-[4-[(1RS,2RS,4SR)-2-cyano-7-azabicyclo[2.2.1]heptan-7-yl]-6-[[(2R,8S)-2-fluoro-1,2,3,5,6,7-hexahydropyrrolizin-8-yl]methoxy]-1,3,5-triazin-2-yl]spiro[6H-thieno[3,4-b]thiophene-4,3′-azetidine]-3-carbonitrile], the concentration for half-maximal inhibition (IC50) in test [1] (setting [3]) was 0.1 to 1 µM.

Regarding `N#Cc1c(N)sc2c1C1(CCC2)CN(c2nc(OCC3(CN4CCOCC4)CC3)nc(N3CCC[C@]4(C3)NC(=O)NC4=O)n2)C1` [Compound 6, 2-amino-1′-[4-[[1-(morpholinomethyl)cyclopropyl]methoxy]-6-[(5R)-2,4-dioxo-1,3,9-triazaspiro[4.5]decan-9-yl]-1,3,5-triazin-2-yl]spiro[6,7-dihydro-5H-benzothiophene-4,3′-azetidine]-3-carbonitrile], the IC50 in test [1] (Table 2, read-out: NEA-G12D (uM) IC50) was 0.01 to 0.1 µM.

`N#Cc1c(N)sc2c1C1(CN(c3nc(OC[C@@]45CCCN4C[C@H](F)C5)nc(N4CCC5(CCN5C(=O)n5cncn5)C4)n3)C1)SC2` (stereo partly drawn) [Compound 248, 2-amino-1′-[4-[[(2R,8S)-2-fluoro-1,2,3,5,6,7-hexahydropyrrolizin-8-yl]methoxy]-6-[1-(1,2,4-triazole-1-carbonyl)-1,7-diazaspiro[3.4]octan-7-yl]-1,3,5-triazin-2-yl]spiro[6H-thieno[2,3-c]thiophene-4,3′-azetidine]-3-carbonitrile] gave an IC50 in test [2] of 1 to 20 µM. Take `CC1(O)CCCN(c2nc(OCC34CCCN3C(COc3cc(C(F)(F)F)ncn3)CC4)nc(N3CC4(C3)SCc3sc(N)c(C#N)c34)n2)C1` (single isomer, unassigned) [Compound 256B]: in test [1] (setting [3]), the IC50 was under 0.01 µM. Molecule `N#Cc1c(N)sc2c1C1(CC2)CN(c2nc(OC[C@@]34CCCN3C[C@H](F)C4)nc(O[C@@H]3COC[C@H]3O)n2)C1` (racemic) [Compound 80, 2-amino-1′-[4-[[(2R,8S)-2-fluoro-1,2,3,5,6,7-hexahydropyrrolizin-8-yl]methoxy]-6-[rac-(3R,4R)-4-hydroxytetrahydrofuran-3-yl]oxy-1,3,5-triazin-2-yl]spiro[5,6-dihydrocyclopenta[b]thiophene-4,3′-azetidine]-3-carbonitrile; 2,2,2-trifluoroacetic acid] gave an IC50 in test [2] of 1 to 20 µM. With `N#Cc1c(N)sc2c1C1(CN(c3nc(OC[C@@]45CCCN4C[C@H](F)C5)nc(N4[C@H]5CC[C@@H]4C(=O)C5)n3)C1)SC2` [Compound 280, 2-amino-1′-[4-[[(2R,8S)-2-fluoro-1,2,3,5,6,7-hexahydropyrrolizin-8-yl]methoxy]-6-(2-oxo-7-azabicyclo[2.2.1]heptan-7-yl)-1,3,5-triazin-2-yl]spiro[6H-thieno[3,4-b]thiophene-4,3′-azetidine]-3-carbonitrile], the IC50 in test [1] (setting [3]) fell in the range of 0.01 to 0.1 µM. For `C[C@@]1(O)CCCN(c2nc(OC[C@@]34CCCN3[C@H](COc3cc(C(F)(F)F)ncn3)CC4)nc(N3CC4(C3)SCc3sc(N)c(C#N)c34)n2)C1` (racemic) [Compound 253, 2-amino-1′-[4-[(3R)-3-hydroxy-3-methyl-1-piperidyl]-6-[[(3SR,8SR)-3-[[6-(trifluoromethyl)pyrimidin-4-yl]oxymethyl]-1,2,3,5,6,7-hexahydropyrrolizin-8-yl]methoxy]-1,3,5-triazin-2-yl]spiro[6H-thieno[3,4-b]thiophene-4,3′-azetidine]-3-carbonitrile], in test [2], the IC50 was under 0.01 µM.

Usually IC50 stands for the concentration that gives 50% inhibition.
